Assays:
Conditions in all cases: incubation time: 72 h
BT-474 [1] = assay: normalised response (% of control), CellTox Green; higher = less cell death (100 = DMSO, 0 = benzethonium chloride kill control)
Outline: (§1)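 Every value is a normalised signal taken at one concentration of a dilution series. Compound was placed in 384-well plates at 5 concentrations in 10-fold steps over a compound-specific 10,000-fold range, and 20 µl of breast cancer cell suspension was seeded onto it. After 72 h, CellTox Green fluorescence (485/520 nm) was measured first and CellTiter-Glo luminescence second, following 10 min at room temperature. Each plate was scaled to 0.1 % DMSO (100) and a positive kill control (0).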

BT-549 [2] = assay: as above
Outline: as §1

CAL-120 [3] = assay: as above
Outline: as §1

CAL-148 [4] = assay: as above
Outline: as §1

CAL-51 [5] = assay: as above
Outline: as §1

CAL-85-1 [6] = assay: as above
Outline: as §1

DU-4475 [7] = assay: as above
Outline: as §1

HCC1143 [8] = assay: as above
Outline: as §1

HCC1599 [9] = assay: as above
Outline: as §1

HCC1937 [10] = assay: as above
Outline: as §1

Hs578T [11] = assay: as above
Outline: as §1

MCF-10A [12] = assay: as above
Outline: as §1

MDA-MB-231 [13] = assay: as above
Outline: as §1

MDA-MB-436 [14] = assay: as above
Outline: as §1

MDA-MB-453 [15] = assay: as above
Outline: as §1

MFM-223 [16] = assay: as above
Outline: as §1

BT-474 [17] = assay: normalised response (% of control), CellTiter-Glo; higher = more viable cells (100 = DMSO, 0 = benzethonium chloride kill control)
Protocol: (§2)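 DSRT, 72 h incubation, CellTox Green / CellTiter-Glo readout. Signal is normalised to DMSO and benzethonium chloride controls. Value is the normalised response at the highest dose.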

BT-549 [18] = assay: as above
Protocol: as §2

CAL-120 [19] = assay: as above
Protocol: as §2

CAL-148 [20] = assay: as above
Protocol: as §2

CAL-51 [21] = assay: as above
Protocol: as §2

CAL-85-1 [22] = assay: as above
Protocol: as §2

DU-4475 [23] = assay: as above
Protocol: as §2

HCC1143 [24] = assay: as above
Protocol: as §2

HCC1599 [25] = assay: as above
Protocol: as §2

HCC1937 [26] = assay: as above
Protocol: as §2

HDQ-P1 [27] = assay: as above
Protocol: as §2

Hs578T [28] = assay: as above
Protocol: as §2

MCF-10A [29] = assay: as above
Protocol: as §2

MDA-MB-231 [30] = assay: as above
Protocol: as §2

MDA-MB-436 [31] = assay: as above
Protocol: as §2

MDA-MB-453 [32] = assay: as above
Protocol: as §2

MDA-MB-468 [33] = assay: as above
Protocol: as §2

MFM-223 [34] = assay: as above
Protocol: as §2

SK-BR-3 [35] = assay: as above
Protocol: as §2

HDQ-P1 [36] = assay: normalised response (% of control), CellTox Green; higher = less cell death (100 = DMSO, 0 = benzethonium chloride kill control)
Outline: as §1

MDA-MB-468 [37] = assay: as above
Outline: as §1

BT-474 [38] = assay: normalised response (% of control), CellTiter-Glo; higher = more viable cells (100 = DMSO, 0 = benzethonium chloride kill control); remark: listed apart in the source
Protocol: (§3)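 DSRT, 72 h incubation, CellTox Green / CellTiter-Glo readout. Signal is normalised to DMSO and benzethonium chloride controls. Value is the normalised response at dose 3.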

BT-549 [39] = assay: as above; remark: listed apart in the source
Protocol: as §3

CAL-120 [40] = assay: as above; remark: listed apart in the source
Protocol: as §3

CAL-148 [41] = assay: as above; remark: listed apart in the source
Protocol: as §3

CAL-51 [42] = assay: as above; remark: listed apart in the source
Protocol: as §3

CAL-85-1 [43] = assay: as above; remark: listed apart in the source
Protocol: as §3

DU-4475 [44] = assay: as above; remark: listed apart in the source
Protocol: as §3

HCC1143 [45] = assay: as above; remark: listed apart in the source
Protocol: as §3

HCC1599 [46] = assay: as above; remark: listed apart in the source
Protocol: as §3

HCC1937 [47] = assay: as above; remark: listed apart in the source
Protocol: as §3

HDQ-P1 [48] = assay: as above; remark: listed apart in the source
Protocol: as §3

Hs578T [49] = assay: as above; remark: listed apart in the source
Protocol: as §3

MCF-10A [50] = assay: as above; remark: listed apart in the source
Protocol: as §3

MDA-MB-231 [51] = assay: as above; remark: listed apart in the source
Protocol: as §3

MDA-MB-436 [52] = assay: as above; remark: listed apart in the source
Protocol: as §3

MDA-MB-453 [53] = assay: as above; remark: listed apart in the source
Protocol: as §3

MDA-MB-468 [54] = assay: as above; remark: listed apart in the source
Protocol: as §3

MFM-223 [55] = assay: as above; remark: listed apart in the source
Protocol: as §3

SK-BR-3 [56] = assay: as above; remark: listed apart in the source
Protocol: as §3

Compound | normalised response (BT-474 [1]) [%] | normalised response (BT-549 [2]) [%] | normalised response (CAL-120 [3]) [%] | normalised response (CAL-148 [4]) [%] | normalised response (CAL-51 [5]) [%] | normalised response (CAL-85-1 [6]) [%] | normalised response (DU-4475 [7]) [%] | normalised response (HCC1143 [8]) [%] | normalised response (HCC1599 [9]) [%] | normalised response (HCC1937 [10]) [%] | normalised response (Hs578T [11]) [%] | normalised response (MCF-10A [12]) [%] | normalised response (MDA-MB-231 [13]) [%] | normalised response (MDA-MB-436 [14]) [%] | normalised response (MDA-MB-453 [15]) [%] | normalised response (MFM-223 [16]) [%] | normalised response (HDQ-P1 [36]) [%] | normalised response (MDA-MB-468 [37]) [%] | normalised response (BT-474 [38]) [%] | normalised response (BT-549 [39]) [%] | other results
C[C@]12CC[C@@H]3c4ccc(OC(=O)N(CCCl)CCCl)cc4CC[C@H]3[C@@H]1CC[C@@H]2O [Estramustine] (10000 nM) | 99 | 58 | 98.3 | 101 | 74 | 130 | 96.4 | 110 | 95 | 81.2 | 79.7 | 106 | 102 | 99.6 | 96.2 | 96.7 | – | – | – | – | normalised response (BT-474 [17]): 95%; normalised response (BT-549 [18]): 106%; normalised response (CAL-120 [19]): 103%; normalised response (CAL-148 [20]): 78.5%; normalised response (CAL-51 [21]): 93.3%; normalised response (CAL-85-1 [22]): 94.2%; normalised response (DU-4475 [23]): 85.5%; normalised response (HCC1143 [24]): 97.5%; normalised response (HCC1599 [25]): 95.5%; normalised response (HCC1937 [26]): 91.7%; normalised response (HDQ-P1 [27]): 105%; normalised response (Hs578T [28]): 92.7%; normalised response (MCF-10A [29]): 88%; normalised response (MDA-MB-231 [30]): 96.6%; normalised response (MDA-MB-436 [31]): 91.7%; normalised response (MDA-MB-453 [32]): 92.4%; normalised response (MDA-MB-468 [33]): 87.7%; normalised response (MFM-223 [34]): 85.9%; normalised response (SK-BR-3 [35]): 87.4%
O=C1CN2Cc3c(ccc(Cl)c3Cl)N=C2N1 [Anagrelide] (100 nM) | 99.4 | 77.3 | 98 | 100 | 51.3 | 104 | 98.5 | 108 | 86.8 | 103 | 104 | 100 | 96.2 | 105 | 92.5 | 68.7 | 101 | 146 | 93.7 | 105 | normalised response (CAL-120 [40]): 96%; normalised response (CAL-148 [41]): 94.1%; normalised response (CAL-51 [42]): 63.1%; normalised response (CAL-85-1 [43]): 97%; normalised response (DU-4475 [44]): 96.9%; normalised response (HCC1143 [45]): 101%; normalised response (HCC1599 [46]): 104%; normalised response (HCC1937 [47]): 95.8%; normalised response (HDQ-P1 [48]): 97.2%; normalised response (Hs578T [49]): 98.5%; normalised response (MCF-10A [50]): 98.4%; normalised response (MDA-MB-231 [51]): 94.7%; normalised response (MDA-MB-436 [52]): 94.3%; normalised response (MDA-MB-453 [53]): 111%; normalised response (MDA-MB-468 [54]): 99.5%; normalised response (MFM-223 [55]): 101%; normalised response (SK-BR-3 [56]): 103%
O=NN(CCCl)C(=O)NCCCl [Carmustine] (100 nM) | 99.1 | 90.8 | 95.2 | 100 | 99.1 | 101 | 95.1 | 101 | 97.9 | 103 | 100 | 93.4 | 100 | 61.7 | 91.5 | 101 | 106 | 52.9 | 97.7 | 111 | normalised response (CAL-120 [40]): 95.5%; normalised response (CAL-148 [41]): 92.3%; normalised response (CAL-51 [42]): 85%; normalised response (CAL-85-1 [43]): 101%; normalised response (DU-4475 [44]): 101%; normalised response (HCC1143 [45]): 100%; normalised response (HCC1599 [46]): 88%; normalised response (HCC1937 [47]): 95.8%; normalised response (HDQ-P1 [48]): 100%; normalised response (Hs578T [49]): 105%; normalised response (MCF-10A [50]): 92.5%; normalised response (MDA-MB-231 [51]): 97.3%; normalised response (MDA-MB-436 [52]): 101%; normalised response (MDA-MB-453 [53]): 101%; normalised response (MDA-MB-468 [54]): 101%; normalised response (MFM-223 [55]): 98.3%; normalised response (SK-BR-3 [56]): 99.7%
Cc1ccc([N+](=O)[O-])cc1S(=O)(=O)N(C)/N=C/c1cnc2ccc(Br)cn12 [PIK-75] (100 nM) | 78.3 | 65.2 | 85.3 | 36.5 | 7.25 | 22 | 71.8 | 89.3 | 79.3 | 78.6 | 17.7 | 17.8 | -1.87 | 50.7 | 101 | 84 | 77.6 | 84.6 | 18.7 | 8.06 | normalised response (CAL-120 [40]): 38.3%; normalised response (CAL-148 [41]): 44.8%; normalised response (CAL-51 [42]): 12.6%; normalised response (CAL-85-1 [43]): 14.4%; normalised response (DU-4475 [44]): 8.8%; normalised response (HCC1143 [45]): 38.8%; normalised response (HCC1599 [46]): 47.9%; normalised response (HCC1937 [47]): 36.9%; normalised response (HDQ-P1 [48]): 22.1%; normalised response (Hs578T [49]): 14.7%; normalised response (MCF-10A [50]): 10.5%; normalised response (MDA-MB-231 [51]): 8.41%; normalised response (MDA-MB-436 [52]): 11.2%; normalised response (MDA-MB-453 [53]): 56%; normalised response (MDA-MB-468 [54]): 14.4%; normalised response (MFM-223 [55]): 31.3%; normalised response (SK-BR-3 [56]): 19.3%
CC(C)(C)c1cnc(CSc2cnc(NC(=O)C3CCNCC3)s2)o1 [SNS-032] (100 nM) | 86.4 | 88.6 | 90.5 | -22.6 | 39.7 | 35.7 | 95.2 | 85 | 88.5 | 53.3 | 60.3 | 84.7 | 4.71 | 59.7 | 94.9 | 91.5 | 57.6 | 94.5 | 68.2 | 20.3 | normalised response (CAL-120 [40]): 70.9%; normalised response (CAL-148 [41]): 42.8%; normalised response (CAL-51 [42]): 31.9%; normalised response (CAL-85-1 [43]): 28.2%; normalised response (DU-4475 [44]): 86.9%; normalised response (HCC1143 [45]): 36.6%; normalised response (HCC1599 [46]): 90.2%; normalised response (HCC1937 [47]): 60.8%; normalised response (HDQ-P1 [48]): 44.2%; normalised response (Hs578T [49]): 55.6%; normalised response (MCF-10A [50]): 79.4%; normalised response (MDA-MB-231 [51]): 29.7%; normalised response (MDA-MB-436 [52]): 27.9%; normalised response (MDA-MB-453 [53]): 46.2%; normalised response (MDA-MB-468 [54]): 12.6%; normalised response (MFM-223 [55]): 76.9%; normalised response (SK-BR-3 [56]): 33.1%
